Source: patent US20120094964A1, “SULFAMOYL BENZOIC ACID DERIVATIVES AS TRPM8 ANTAGONISTS” (priority 2009, published 2012)

Target: T1, human TRPM8 (Homo sapiens, UniProt Q7Z2W7)
T1 construct: expressed in transfected cells
Assay: In Vitro human TRPM8 Functional Assay (intracellular Ca2+, Fluo4, FDSS, menthol activation)
Type: cell-based
Conditions: HEK293 cells stably expressing human TRPM8; activation with L-(-)-Menthol; 11-point dose-response
Method in brief: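 Fluo4-loaded HEK293 cells stably expressing TRPM8 were preincubated with compound for 5 min at room temperature, then stimulated with L-menthol (20 μl of 90 μM stock) while fluorescence was read. IC50 values come from 11-point curves fitted to the mean of duplicate wells.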

T1 sequence (Q7Z2W7 whole entry): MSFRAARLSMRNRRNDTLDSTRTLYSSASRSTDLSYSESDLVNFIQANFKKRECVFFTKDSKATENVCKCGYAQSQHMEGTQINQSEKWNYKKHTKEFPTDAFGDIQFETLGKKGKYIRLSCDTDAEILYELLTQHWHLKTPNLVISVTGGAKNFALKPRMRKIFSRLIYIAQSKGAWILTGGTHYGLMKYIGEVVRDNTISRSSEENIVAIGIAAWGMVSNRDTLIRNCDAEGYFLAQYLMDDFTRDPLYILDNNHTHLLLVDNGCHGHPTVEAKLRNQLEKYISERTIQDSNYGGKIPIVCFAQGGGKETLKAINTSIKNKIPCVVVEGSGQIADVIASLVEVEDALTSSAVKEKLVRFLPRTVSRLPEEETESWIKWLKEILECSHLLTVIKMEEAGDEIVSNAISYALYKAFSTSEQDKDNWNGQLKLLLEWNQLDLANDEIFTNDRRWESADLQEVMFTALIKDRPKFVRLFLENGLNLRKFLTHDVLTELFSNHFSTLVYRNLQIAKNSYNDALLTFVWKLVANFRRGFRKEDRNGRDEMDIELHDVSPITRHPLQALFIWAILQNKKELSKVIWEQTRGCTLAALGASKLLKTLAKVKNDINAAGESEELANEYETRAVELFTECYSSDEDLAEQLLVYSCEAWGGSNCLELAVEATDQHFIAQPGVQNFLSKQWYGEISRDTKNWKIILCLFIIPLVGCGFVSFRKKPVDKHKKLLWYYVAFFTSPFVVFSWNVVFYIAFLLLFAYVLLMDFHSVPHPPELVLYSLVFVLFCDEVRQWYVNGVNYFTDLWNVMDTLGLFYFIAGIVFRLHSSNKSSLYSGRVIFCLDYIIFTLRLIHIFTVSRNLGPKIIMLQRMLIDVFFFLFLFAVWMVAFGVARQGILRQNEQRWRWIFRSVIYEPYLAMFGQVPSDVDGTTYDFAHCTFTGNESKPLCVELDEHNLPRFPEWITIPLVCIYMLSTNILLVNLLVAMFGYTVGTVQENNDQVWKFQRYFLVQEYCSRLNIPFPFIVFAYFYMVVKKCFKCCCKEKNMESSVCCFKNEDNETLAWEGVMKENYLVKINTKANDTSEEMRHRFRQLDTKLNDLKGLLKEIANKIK

| Structure (SMILES) | IC50 |
| --- | --- |
| O=S(=O)(c1ccccc1)N(Cc1ccccc1)c1ccccn1 [Example 131, N-Benzyl-N-(pyridin-2-yl)benzenesulfonamide] | 1000 to 10000 nM |
| COc1ccc(S(=O)(=O)N(Cc2ccccc2)c2ccccn2)cc1 [Example 132, N-Benzyl-4-methoxy-N-(pyridin-2-yl)benzene-sulfonamide] | 1000 to 10000 nM |
| Cc1ccc(S(=O)(=O)N(Cc2ccccc2)c2ccccn2)cc1[N+](=O)[O-] [Example 133, N-Benzyl-4-methyl-3-nitro-N-(pyridin-2-yl) benzenesulfonamide] | 1000 to 10000 nM |
| COc1ccc(N(C(C)c2ccc(C)cc2)S(=O)(=O)c2cc(Cl)ccc2F)cc1 (stereo not shown) [Example 134, 5-Chloro-2-fluoro-N-(4-methoxyphenyl)-N-(1-p-tolylethyl)benezene-sulfonamide] | 1000 to 10000 nM |
| COc1ccc(OC)c(C(C)N(c2ccc(F)cc2)S(=O)(=O)c2ccc(F)cc2C)c1 (stereo not shown) [Example 135, N-(1-(2,5-Dimethoxyphenyl)ethyl)-4-fluoro-N-(4-fluoro-phenyl)-2-methylbenzene-sulfonamide] | 1000 to 10000 nM |
| COc1ccc(OC)c(C(C)N(c2cccc(F)c2)S(=O)(=O)c2cc(F)ccc2C)c1 (stereo not shown) [Example 136, N-(1-(2,5-Dimethoxyphenyl)ethyl)-5-fluoro-N-(3-fluorophenyl)-2-methyl-benzenesulfonamide] | 1000 to 10000 nM |
| COc1ccc(C(C)N(c2ccc(OC)cc2)S(=O)(=O)c2ccc(C)c(Cl)c2)cc1 (stereo not shown) [Example 137, 3-Chloro-N-(4-methoxyphenyl)-N-(1-(4-methoxy-phenyl)ethyl)-4-methyl benzenesulfonamide] | 10000 to 30000 nM |
| COc1cccc(C(C)N(c2ccccc2)S(=O)(=O)c2cccc(F)c2)c1 (stereo not shown) [Example 138, 3-Fluoro-N-(1-(3-methoxy-phenyl)ethyl)-N-phenyl-benzenesulfonamide] | 1000 to 10000 nM |
| COc1cccc(C(C)N(c2cccc(Cl)c2)S(=O)(=O)c2ccc(F)cc2C)c1 (stereo not shown) [Example 139, N-(3-Chlorophenyl)-4-fluoro-N-(1-(3-methoxy-phenyl)ethyl)-2-methyl-benzenesulfonamide] | 1000 to 10000 nM |
| C[Si](C)(C)c1ccc(CN(c2ncc(C(F)(F)F)cc2Cl)S(=O)(=O)c2ccc(C(=O)O)cc2)cc1 [Example 140, 4-(N-(3-Chloro-5-(trifluoromethyl)pyridin-2-yl)-N-(4-(trimethylsilyl)benzyl)sulfamoyl)benzoic acid] | < 1000 nM |
| O=C(O)c1ccc(S(=O)(=O)N(CC2CCN(c3ccccn3)CC2)c2ncc(C(F)(F)F)cc2Cl)cc1 [Example 142, 4-(N-(3-Chloro-5-(trifluoromethyl)pyridin-2-yl)-N-((1-(pyridin-2-yl)piperidin-4-yl)methyl)sulfamoyl)benzoic acid] | < 1000 nM |
| Cc1cc(S(=O)(=O)N(Cc2ccccc2)c2ncc(C(F)(F)F)cc2Cl)ccc1C(=O)O [Example 143, 4-(N-Benzyl-N-(3-chloro-5-(trifluoromethyl)pyridin-2-yl)sulfamoyl)-2-methylbenzoic acid] | < 1000 nM |
| O=S(=O)(c1ccc(O)nc1)N(Cc1ccccc1)c1ncc(C(F)(F)F)cc1Cl [Example 144, N-Benzyl-N-(3-chloro-5-(trifluoromethyl)pyridin-2-yl)-6-hydroxypyridine-3-sulfonamide] | < 1000 nM |
| Cc1cc(C(=O)O)ccc1S(=O)(=O)N(Cc1ccccc1)c1ncc(C(F)(F)F)cc1Cl [Example 145, 4-(N-Benzyl-N-(3-chloro-5-(trifluoromethyl)pyridin-2-yl)sulfamoyl)-3-methylbenzoic acid] | < 1000 nM |
| COc1cc(C(=O)O)ccc1S(=O)(=O)N(Cc1ccccc1)c1ncc(C(F)(F)F)cc1Cl [Example 146, 4-(N-Benzyl-N-(3-chloro-5-(trifluoromethyl)pyridin-2-yl)sulfamoyl)-3-methoxybenzoic acid] | < 1000 nM |
| O=C(O)Cc1ccc(S(=O)(=O)N(Cc2ccccc2)c2ncc(C(F)(F)F)cc2Cl)cc1 [Example 147, 2-(4-(N-Benzyl-N-(3-chloro-5-(trifluoromethyl)pyridin-2-yl)sulfamoyl)phenyl)acetic acid] | < 1000 nM |
| O=C(O)c1ccc(S(=O)(=O)N(CCc2ccccc2)c2ncc(C(F)(F)F)cc2Cl)cc1 [Example 148, 4-(N-(3-Chloro-5-(trifluoromethyl)pyridin-2-yl)-N-phenethylsulfamoyl)benzoic acid] | < 1000 nM |
| O=C(O)c1ccc(S(=O)(=O)N(Cc2ccccc2)c2ncc(C(F)(F)F)cc2C2CC2)cc1 [Example 149, 4-(N-Benzyl-N-(3-cyclopropyl-5-(trifluoromethyl)pyridin-2-yl)sulfamoyl)benzoic acid] | < 1000 nM |
| O=C(O)c1ccc(S(=O)(=O)N(Cc2ccc(C3CC3)cc2)c2ncc(C(F)(F)F)cc2Cl)cc1 [Example 150, 4-(N-(3-Chloro-5-(trifluoromethyl)pyridin-2-yl)-N-(4-cyclopropylbenzyl)sulfamoyl)benzoic acid] | < 1000 nM |
| O=C(O)c1ccc(S(=O)(=O)N(Cc2ccccc2)c2ncc(C(F)(F)F)cc2Br)cc1 [Example 151, 4-(N-Benzyl-N-(3-bromo-5-(trifluoromethyl)pyridin-2-yl)sulfamoyl)benzoic acid] | < 1000 nM |
| Cn1cc(-c2ccc(CN(c3ncc(C(F)(F)F)cc3Cl)S(=O)(=O)c3ccc(C(=O)O)cc3)cc2)cn1 [Example 152, 4-(N-(3-Chloro-5-(trifluoromethyl)pyridin-2-yl)-N-(4-(1-methyl-1H-pyrazol-4-yl)benzyl)sulfamoyl)benzoic acid] | < 1000 nM |
| Cc1cc(C(F)(F)F)cnc1N(Cc1ccccc1)S(=O)(=O)c1ccc(C(=O)O)cc1 [Example 153, 4-(N-Benzyl-N-(3-methyl-5-(trifluoromethyl)pyridin-2-yl)sulfamoyl)benzoic acid] | < 1000 nM |
| O=C(O)c1ccc(S(=O)(=O)N(Cc2ccc(-c3cccnc3)cc2)c2ncc(C(F)(F)F)cc2Cl)cc1 [Example 154, 4-(N-(3-Chloro-5-(trifluoromethyl)pyridin-2-yl)-N-(4-(pyridin-3-yl)benzyl)sulfamoyl)benzoic acid] | < 1000 nM |
| O=C(O)c1ccc(S(=O)(=O)N(Cc2ccc(-c3cccs3)cc2)c2ncc(C(F)(F)F)cc2Cl)cc1 [Example 155, 4-(N-(3-Chloro-5-(trifluoromethyl)pyridin-2-yl)-N-(4-(thiophen-2-yl)benzyl)sulfamoyl)benzoic acid] | < 1000 nM |
| O=C(O)c1ccc(S(=O)(=O)N(Cc2ccc(-c3ccncc3)cc2)c2ncc(C(F)(F)F)cc2Cl)cc1 [Example 156] | < 1000 nM |
| O=C(O)c1ccc(S(=O)(=O)N(Cc2ccc(-c3ccco3)cc2)c2ncc(C(F)(F)F)cc2Cl)cc1 [Example 157, 4-(N-(3-Chloro-5-(trifluoromethyl)pyridin-2-yl)-N-(4-(furan-2-yl)-benzyl)sulfamoyl)benzoic acid] | < 1000 nM |
| O=C(O)c1ccc(S(=O)(=O)N(Cc2ccc(-c3ccccc3)cc2)c2ncc(C(F)(F)F)cc2Cl)cc1 [Example 158, 4-(N-([1,1′-Biphenyl]-4-ylmethyl)-N-(3-chloro-5-(trifluoromethyl)pyridin-2-yl)sulfamoyl)benzoic acid] | < 1000 nM |
| O=C(O)c1ccc(S(=O)(=O)N(Cc2ccc(-c3cnco3)cc2)c2ncc(C(F)(F)F)cc2Cl)cc1 [Example 159, 4-(N-(3-Chloro-5-(trifluoromethyl)pyridin-2-yl)-N-(4-(oxazol-5-yl)benzyl)sulfamoyl)benzoic acid] | < 1000 nM |
